Results published in ChEMBL document CHEMBL3044529, “7-Hydroxy-coumarin derivatives: synthesis, characterization and preliminary antimicrobial activities” (2011).
Converted amounts (≈) assume the structure as drawn.

How the values were obtained:
Type in all cases: functional
Candida parapsilosis = assay: Antimicrobial activity against Candida parapsilosis by macro dilution test; details: Lodderomyces parapsilosis
Cryptococcus neoformans = assay: Antimicrobial activity against Cryptococcus neoformans by macro dilution test
Pichia kudriavzevii = assay: Antimicrobial activity against Pichia kudriavzevii by macro dilution test
Escherichia coli = assay: Antimicrobial activity against Escherichia coli by macro dilution test
Candida albicans = assay: Antimicrobial activity against Candida albicans by macro dilution test
Pseudomonas aeruginosa = assay: Antimicrobial activity against Pseudomonas aeruginosa by macro dilution test
Salmonella typhimurium = assay: Antimicrobial activity against Salmonella enterica subsp. enterica serovar Typhimurium by macro dilution test
Staphylococcus aureus = assay: Antimicrobial activity against Staphylococcus aureus by macro dilution test
Bacillus subtilis = assay: Antimicrobial activity against Bacillus subtilis by macro dilution test
Streptococcus pyogenes = assay: Antimicrobial activity against Streptococcus pyogenes by macro dilution test

SMILES	MIC (Candida parapsilosis)	MIC (Cryptococcus neoformans)	MIC (Pichia kudriavzevii)	MIC (Escherichia coli)	MIC (Candida albicans)	MIC (Pseudomonas aeruginosa)	MIC (Salmonella typhimurium)	MIC (Staphylococcus aureus)	MIC (Bacillus subtilis)	MIC (Streptococcus pyogenes)
CCCCC/C=C\CC[C@H](O)CCCCCCCC(=O)Oc1ccc2ccc(=O)oc2c1	16 µg/mL (≈ 36.2 µM)	8 µg/mL (≈ 18.1 µM)	256 µg/mL (≈ 578 µM)	32 µg/mL (≈ 72.3 µM)	2 µg/mL (≈ 4.52 µM)	128 µg/mL (≈ 289 µM)	64 µg/mL (≈ 145 µM)	32 µg/mL (≈ 72.3 µM)	64 µg/mL (≈ 145 µM)	32 µg/mL (≈ 72.3 µM)
CCCCCC[C@@H](O)C/C=C\CCCCCCCC(=O)Oc1ccc2ccc(=O)oc2c1	16 µg/mL (≈ 36.2 µM)	16 µg/mL (≈ 36.2 µM)	256 µg/mL (≈ 578 µM)	64 µg/mL (≈ 145 µM)	4 µg/mL (≈ 9.04 µM)	128 µg/mL (≈ 289 µM)	64 µg/mL (≈ 145 µM)	32 µg/mL (≈ 72.3 µM)	64 µg/mL (≈ 145 µM)	64 µg/mL (≈ 145 µM)
CCCCCCCC/C=C\CCCCCCCC(=O)Oc1ccc2ccc(=O)oc2c1	64 µg/mL (≈ 150 µM)	32 µg/mL (≈ 75 µM)	512 µg/mL (≈ 1200 µM)	128 µg/mL (≈ 300 µM)	8 µg/mL (≈ 18.8 µM)	128 µg/mL (≈ 300 µM)	128 µg/mL (≈ 300 µM)	128 µg/mL (≈ 300 µM)	64 µg/mL (≈ 150 µM)	128 µg/mL (≈ 300 µM)
C=CCCCCCCCCC(=O)Oc1ccc2ccc(=O)oc2c1	32 µg/mL (≈ 97.4 µM)	16 µg/mL (≈ 48.7 µM)	256 µg/mL (≈ 780 µM)	128 µg/mL (≈ 390 µM)	4 µg/mL (≈ 12.2 µM)	128 µg/mL (≈ 390 µM)	64 µg/mL (≈ 195 µM)	128 µg/mL (≈ 390 µM)	64 µg/mL (≈ 195 µM)	64 µg/mL (≈ 195 µM)
O=C(N[C@H](CO)[C@H](O)c1ccc([N+](=O)[O-])cc1)C(Cl)Cl [CHLORAMPHENICOL]	–	–	–	32 µg/mL (≈ 99 µM)	–	64 µg/mL (≈ 198 µM)	32 µg/mL (≈ 99 µM)	32 µg/mL (≈ 99 µM)	32 µg/mL (≈ 99 µM)	32 µg/mL (≈ 99 µM)
OC(Cn1cncn1)(Cn1cncn1)c1ccc(F)cc1F [FLUCONAZOLE]	8 µg/mL (≈ 26.1 µM)	8 µg/mL (≈ 26.1 µM)	64 µg/mL (≈ 209 µM)	–	1 µg/mL (≈ 3.27 µM)	–	–	–	–	–
